According to patent publication US20240199612A1, “IMIDAZOPYRIDINYL INHIBITORS OF PLASMA KALLIKREIN” (SHIRE HUMAN GENETIC THERAPIES, INC., priority 2021, published 2024):

molecular target: human activated kallikrein enzyme (Homo sapiens, UniProt P03952); test: Inhibition of human activated plasma kallikrein, fluorogenic peptide substrate (PFR-AMC) assay, 500 pM enzyme format; type: biochemical; details: format with 500 pM activated kallikrein, 300 uM PFR-AMC, 30 min preincubation, 10 min reaction, room temperature; read-out: Primary Dose Response Assay: Average EC50
Sequence (P03952 391-638 limits assumed): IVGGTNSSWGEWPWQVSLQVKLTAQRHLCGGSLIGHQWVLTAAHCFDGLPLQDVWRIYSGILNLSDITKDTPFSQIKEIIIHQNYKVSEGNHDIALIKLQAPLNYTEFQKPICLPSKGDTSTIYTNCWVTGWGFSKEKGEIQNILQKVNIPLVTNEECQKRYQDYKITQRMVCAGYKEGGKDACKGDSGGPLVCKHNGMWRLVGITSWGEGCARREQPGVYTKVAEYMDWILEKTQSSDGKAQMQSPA
Sequence (P03952 20-390 partner limits assumed): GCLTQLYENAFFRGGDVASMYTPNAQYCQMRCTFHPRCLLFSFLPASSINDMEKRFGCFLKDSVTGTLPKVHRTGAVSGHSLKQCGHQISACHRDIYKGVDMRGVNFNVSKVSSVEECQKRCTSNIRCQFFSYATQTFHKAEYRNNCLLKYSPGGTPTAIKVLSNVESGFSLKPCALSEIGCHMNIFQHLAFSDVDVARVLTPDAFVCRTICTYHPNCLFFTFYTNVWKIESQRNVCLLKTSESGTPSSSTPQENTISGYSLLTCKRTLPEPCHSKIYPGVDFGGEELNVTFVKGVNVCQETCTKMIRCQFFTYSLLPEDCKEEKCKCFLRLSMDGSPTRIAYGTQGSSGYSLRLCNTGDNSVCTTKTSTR
Description: Inhibitory Activity of Exemplary Compounds against Plasma Kallikrein.
Compounds were evaluated for inhibition of the human activated kallikrein enzyme in two formats of an assay employing a fluorogenic peptide substrate. In one assay format, the concentrations of reagents were as follows: 20 mM Tris pH 7.5, 1 mM EDTA, 150 mM sodium chloride, 0.1% PEG-400, 0.1% Triton X-100, 500 pM activated kallikrein enzyme, 300 uM Pro-Phe-Arg-7-amido-4-methylcoumarin (PFR-AMC) substrate. Prior to reaction initiation with substrate, enzyme and inhibitors were preincubated for 30 min at room temperature. After initiation with substrate, reactions were incubated for 10 min at room temperature and fluorescence emission at 460 nm from 380 nm excitation measured with a microplate reader. In another assay format, the concentrations of reagents were as follows: 20 mM Tris pH 7.5, 1 mM EDTA, 150 mM sodium chloride, 0.1% PEG-400, 0.1% Triton X-100, 5 pM activated kallikrein enzyme, 300 uM PFR-AMC substrate. Prior to reaction initiation with substrate, enzyme and inhibitors were preincubated for 30 min at room temperature. After initiation with substrate, reactions were incubated for 18 hr at room temperature and fluorescence emission at 460 nm from 380 nm excitation measured with a microplate reader.

SMILES | EC50 [nM]
CC(OC(=O)Nc1cc(NCc2cn3cc(C4CC4)ccc3n2)ccn1)c1cc(Cl)ccc1-n1cnnn1 (centres unmarked) [Compound I-21, 1-(5-chloro-2-(1H-tetrazol-1-yl)phenyl)ethyl (4-(((6-cyclopropylimidazo[1,2-a]pyridin-2-yl)methyl)amino)pyridin-2-yl)carbamate] | < 5
CCC(OC(=O)Nc1cc(NCc2cn3cc(C4CC4)ccc3n2)ncn1)c1cccc(Cl)c1 (centres unmarked) [Compound I-6, 1-(3-chlorophenyl)propyl (6-(((6-cyclopropylimidazo[1,2-a]pyridin-2-yl)methyl)amino)pyrimidin-4-yl)carbamate] | 50 to 500
O=C(Nc1cc(NCc2cn3cc(C4CC4)ccc3n2)ccn1)OCc1cc(Cl)ccc1-n1cnnn1 [Compound I-11, 5-chloro-2-(1H-tetrazol-1-yl)benzyl (4-(((6-cyclopropylimidazo[1,2-a]pyridin-2-yl)methyl)amino)pyridin-2-yl)carbamate] | < 5
C[C@H](OC(=O)Nc1cc(NCc2cn3cc(C4CC4)ccc3n2)ncn1)c1cccc(Cl)c1 [Compound I-3, (S)-1-(3-chlorophenyl)ethyl (6-(((6-cyclopropylimidazo[1,2-a]pyridin-2-yl)methyl)amino)pyrimidin-4-yl)carbamate] | 500 to 9000
O=C(Nc1cc2c(cn1)nnn2Cc1cn2cc(C3CC3)ccc2n1)OCc1cccc(Cl)c1 [Compound I-20, 3-chlorobenzyl (1-((6-cyclopropylimidazo[1,2-a]pyridin-2-yl)methyl)-1H-[1,2,3]triazolo[4,5-c]pyridin-6-yl)carbamate] | 50 to 500
CC(OC(=O)Nc1cc(NCc2cn3cc(C4CC4)ccc3n2)ccn1)c1cccc(Cl)c1 (centres unmarked) [Compound I-15, 1-(3-chlorophenyl)ethyl (4-(((6-cyclopropylimidazo[1,2-a]pyridin-2-yl)methyl)amino)pyridin-2-yl)carbamate] | < 5
O=C(Nc1cn2c(Cc3cn4cc(C5CC5)ccc4n3)nnc2cn1)OCc1cccc(Cl)c1 [Compound I-14, 3-chlorobenzyl (3-((6-cyclopropylimidazo[1,2-a]pyridin-2-yl)methyl)-[1,2,4]triazolo[4,3-a]pyrazin-6-yl)carbamate] | 50 to 500
O=C(Nc1nccc2nn(Cc3cn4cc(C5CC5)ccc4n3)cc12)OCc1cc(Cl)ccc1-n1cnnn1 [Compound I-22, 5-chloro-2-(1H-tetrazol-1-yl)benzyl (2-((6-cyclopropylimidazo[1,2-a]pyridin-2-yl)methyl)-2H-pyrazolo[4,3-c]pyridin-4-yl)carbamate] | < 5
COc1ccnc(CNC(=O)Nc2cc(NCc3cn4cc(C5CC5)ccc4n3)ncn2)n1 [Compound I-30, 1-(6-(((6-cyclopropylimidazo[1,2-a]pyridin-2-yl)methyl)amino)pyrimidin-4-yl)-3-((4-methoxypyrimidin-2-yl)methyl)urea] | 500 to 9000
CC(OC(=O)Nc1cc2c(cn1)ncn2Cc1cn2cc(C3CC3)ccc2n1)c1cccc(Cl)c1 (centres unmarked) [Compound I-17, 1-(3-chlorophenyl)ethyl (1-((6-cyclopropylimidazo[1,2-a]pyridin-2-yl)methyl)-1H-imidazo[4,5-c]pyridin-6-yl)carbamate] | 50 to 500
O=C(Nc1nccc2nn(Cc3cn4cc(C5CC5)ccc4n3)cc12)OCc1cccc(Cl)c1 [Compound I-19] | 5 to 50
Cc1ccnc(COC(=O)Nc2cc(NCc3cn4cc(C5CC5)ccc4n3)ncn2)n1 [Compound I-34, (4-methylpyrimidin-2-yl)methyl (6-(((6-cyclopropylimidazo[1,2-a]pyridin-2-yl)methyl)amino)pyrimidin-4-yl)carbamate] | 5 to 50
O=C(Nc1cc(N2C[C@@H](O)C[C@@H]2c2cn3cc(C4CC4)ccc3n2)ncn1)N1CC(c2ccccc2)C1 [Compound I-31, N-(6-((2R,4S)-2-(6-cyclopropylimidazo[1,2-a]pyridin-2-yl)-4-hydroxypyrrolidin-1-yl)pyrimidin-4-yl)-3-phenylazetidine-1-carboxamide] | 500 to 9000
CC(OC(=O)Nc1cc(NCc2cn3cc(C4CC4)ccc3n2)ncn1)c1cccc(Cl)c1F (centres unmarked) [Compound I-7, 1-(3-chloro-2-fluorophenyl)ethyl (6-(((6-cyclopropylimidazo[1,2-a]pyridin-2-yl)methyl)amino)pyrimidin-4-yl)carbamate] | 5 to 50
O=C(NCc1nccc(Cl)n1)Nc1cc(NCc2cn3cc(C4CC4)ccc3n2)ncn1 [Compound I-29, 1-((4-chloropyrimidin-2-yl)methyl)-3-(6-(((6-cyclopropylimidazo[1,2-a]pyridin-2-yl)methyl)amino)-pyrimidin-4-yl)urea] | 50 to 500
O=C(Nc1cc(NCc2cn3cc(C4CC4)ccc3n2)ncn1)NC1Cc2ccc(Cl)cc21 (centres unmarked) [Compound I-32, 1-(4-chlorobicyclo[4.2.0]octa-1(6),2,4-trien-7-yl)-3-(6-(((6-cyclopropylimidazo[1,2-a]pyridin-2-yl)methyl)amino)pyrimidin-4-yl)urea] | 500 to 9000
O=C(NCc1cc(Cl)ccn1)Nc1cc(NCc2cn3cc(C4CC4)ccc3n2)ncn1 [Compound I-27, 1-((4-chloropyridin-2-yl)methyl)-3-(6-(((6-cyclopropylimidazo[1,2-a]pyridin-2-yl)methyl)amino)pyrimidin-4-yl)urea] | 50 to 500
COc1cccc(COC(=O)Nc2cc(NCc3cn4cc(C5CC5)ccc4n3)ncn2)c1 [Compound I-4, 3-methoxybenzyl (6-(((6-cyclopropylimidazo[1,2-a]pyridin-2-yl)methyl)amino)pyrimidin-4-yl)carbamate] | 50 to 500
O=C(Nc1cc(N2C[C@@H](O)C[C@@H]2c2cn3cc(C4CC4)ccc3n2)ncn1)N1CC(c2ncccn2)C1 [Compound I-33, N-(6-((2R,4S)-2-(6-cyclopropylimidazo[1,2-a]pyridin-2-yl)-4-hydroxypyrrolidin-1-yl)pyrimidin-4-yl)-3-(pyrimidin-2-yl)azetidine-1-carboxamide] | 50 to 500
O=C(Nc1cc2c(cn1)ncn2Cc1cn2cc(C3CC3)ccc2n1)OCc1cc(Cl)ccc1-n1cnnn1 [Compound I-23, 5-chloro-2-(1H-tetrazol-1-yl)benzyl (1-((6-cyclopropylimidazo[1,2-a]pyridin-2-yl)methyl)-1H-imidazo[4,5-c]pyridin-6-yl)carbamate] | < 5
O=C(Nc1cc2c(cn1)ncn2Cc1cn2cc(C3CC3)ccc2n1)OCc1cccc(Cl)c1 [Compound I-16, 3-chlorobenzyl (1-((6-cyclopropylimidazo[1,2-a]pyridin-2-yl)methyl)-1H-imidazo[4,5-c]pyridin-6-yl)carbamate] | 50 to 500
O=C(Nc1cc(NCc2cn3cc(C4CC4)ccc3n2)ncn1)OCC(O)c1cccc(Cl)c1 (centres unmarked) [Compound I-9, 2-(3-chlorophenyl)-2-hydroxyethyl (6-(((6-cyclopropylimidazo[1,2-a]pyridin-2-yl)methyl)amino)pyrimidin-4-yl)carbamate] | 5 to 50
C[C@@H](OC(=O)Nc1cc(NCc2cn3cc(C4CC4)ccc3n2)ncn1)c1cccc(Cl)c1 [Compound I-2, (R)-1-(3-chlorophenyl)ethyl (6-(((6-cyclopropylimidazo[1,2-a]pyridin-2-yl)methyl)amino)pyrimidin-4-yl)carbamate] | < 5
O=C(Nc1cc(NCc2cn3cc(C4CC4)ccc3n2)ncn1)N1CC(c2cccc(Cl)c2)C1 [Compound I-25, 3-(3-chlorophenyl)-N-(6-(((6-cyclopropylimidazo[1,2-a]pyridin-2-yl)methyl)amino)pyrimidin-4-yl)azetidine-1-carboxamide] | > 9000
O=C(NCc1cccc(Cl)c1)Nc1cc(NCc2cn3cc(C4CC4)ccc3n2)ncn1 [Compound I-24, 1-(3-chlorobenzyl)-3-(6-(((6-cyclopropylimidazo[1,2-a]pyridin-2-yl)methyl)amino)pyrimidin-4-yl)urea] | 500 to 9000
O=C(Nc1cc(NCc2cn3cc(C4CC4)ccc3n2)ncn1)OCc1cccc(Cl)c1 [Compound I-1, 3-Chlorobenzyl (6-(((6-cyclopropylimidazo[1,2-a]pyridin-2-yl)methyl)amino)pyrimidin-4-yl)carbamate] | 5 to 50

molecular target: T1, plasma kallikrein (Homo sapiens, UniProt P03952); test: Neat human plasma assay (contact pathway-activated plasma, FXIIa, PFR-AMC substrate); type: biochemical; details: sodium citrate human plasma, 78% final plasma, 10 nM human FXIIa, 100 μM PFR-AMC, room temperature
T1 construct: from tissue; host or cells: sodium citrate collected human plasma (78% final)
T1 sequence (P03952 391-638 limits assumed): as the sequence (P03952 391-638 limits assumed) above
T1 sequence (P03952 20-390 partner limits assumed): as the sequence (P03952 20-390 partner limits assumed) above
Description: Neat Human and Rat Plasma Assay
To analyze inhibition of plasma kallikrein in an ex vivo setting, the potency of compounds was measure in contact pathway-activated plasma assays. In a fluorogenic peptide substrate assay, test compounds dissolved in DMSO were added to sodium citrate collected human or rat plasma in a 96-well microplate. Alternatively, citrated plasma was collected from rats administered the compounds orally or by IV. 10 nM of human FXIIa (Enzyme Research Laboratories) diluted in PKa buffer (20 mM Tris-HCl, pH 7.5, 150 mM NaCl, 1 mM EDTA, 0.1% PEG-8000, and 0.1% Triton X-100) was added to the plasma, followed by the 100 μM of the profluorescent, synthetic plasma kallikrein substrate PFR-AMC (also diluted in PKa buffer). Final plasma concentration in the reaction was 78%. Fluorescence was immediately monitored by excitation/emission wavelengths of 360 nm/480 nm respectively over a period of 5 minutes in a microplate reader. The resulting linear increase in fluorescence emission (reflecting PKa proteolysis of PFR-AMC substrate) was fit to extract a proteolytic rate (fluorescent units over time), and this rate was subsequently plotted against compound inhibitor concentration. Resulting plots were fit to a standard 4-parameter IC50/IC90 equation to determine min/max values, IC50/90, and slope. All experimental steps were performed at room temperature.

SMILES | IC90 [µM]
CC(OC(=O)Nc1cc(NCc2cn3cc(C4CC4)ccc3n2)ccn1)c1cc(Cl)ccc1-n1cnnn1 (centres unmarked) [Compound I-21, 1-(5-chloro-2-(1H-tetrazol-1-yl)phenyl)ethyl (4-(((6-cyclopropylimidazo[1,2-a]pyridin-2-yl)methyl)amino)pyridin-2-yl)carbamate] | 2.5 to 7.5
O=C(Nc1cc(NCc2cn3cc(C4CC4)ccc3n2)ccn1)OCc1cc(Cl)ccc1-n1cnnn1 [Compound I-11, 5-chloro-2-(1H-tetrazol-1-yl)benzyl (4-(((6-cyclopropylimidazo[1,2-a]pyridin-2-yl)methyl)amino)pyridin-2-yl)carbamate] | 2.5 to 7.5
CC(OC(=O)Nc1cc(NCc2cn3cc(C4CC4)ccc3n2)ccn1)c1cccc(Cl)c1 (centres unmarked) [Compound I-15, 1-(3-chlorophenyl)ethyl (4-(((6-cyclopropylimidazo[1,2-a]pyridin-2-yl)methyl)amino)pyridin-2-yl)carbamate] | 2.5 to 7.5
